Results as given in patent US12565481B2, “6,7-dimethoxy-3-(pyridin-2-yl)quinoline compounds for inhibiting RET” (Guangzhou Baiyunshan Pharmaceutical Holdings Co., Ltd. …, priority 2020, dated 2026).

Experiment: Pharmacokinetics study of mice
Type: in vivo
Details: mouse, plasma; male CD-1 mice, 2.5 mpk oral administration vs 0.5 mpk intravenous injection
Text: The purpose of this experiment was to study the pharmacokinetics of the test compound in the plasma of male CD-1 mice after intravenous injection and oral administration.
The animals were randomly divided into two groups with 2 males in each group. The compounds were formulated into prescribed preparations. Intravenous formulations were formulated with 5% DMSO/95% (6% hydroxypropyl-β-cyclodextrin) to give a clear solution, and oral preparations were formulated with 0.1% Tween80/0.5% HPMC aqueous solution to give a homogeneous suspension.
Whole blood samples were collected from the saphenous vein of the animals 5 minutes, 15 minutes, 30 minutes, 1 hour, 2 hours, 4 hours, 8 hours, 12 hours, and 24 hours after administration. The whole blood sample was added to the centrifuge tube containing anticoagulant, and centrifuged at 3200 g for 10 minutes at 4° C. The supernatant of plasma was taken, frozen quickly on dry ice, and then stored in a −70±10° C. refrigerator until LC-MS/MS analysis.
WinNonlin™ Version 6.3.0 (Pharsight, Mountain View, Calif.) pharmacokinetic software was used to process the plasma drug concentration data of the compounds with a non-compartmental model. The peak concentration (Cmax), peak time (Tmax) and quantifiable end time were obtained directly from the blood drug concentration-time profile. […]

bioavailability: 48.9%
SMILES: CCN1CCN(Cc2cc(F)c(NC(=O)Cc3ccc(-c4cnc5cc(OC)c(OC)cc5c4)nc3)cc2C(F)(F)F)CC1 [Compound 1]
